Results taken from the supplement of paper PMC10307832.

Each cell line was assayed with c1ccc2c(CCNc3ccc(Nc4ccncc4)cc3)c[nH]c2c1 [Serdemetan] + CC(C)C[C@H](NC(=O)[C@H](Cc1ccccc1)NC(=O)c1cnccn1)B(O)O [Bortezomib] (partner 0.002 µM) (assay: relative viability (nuclei count vs DMSO), 5 days (fraction); higher = more cells survive). Settings: first compound 0.04 µM.
Summary of the method: (§1)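 Lung cancer cell lines in 1536-well plates were dosed by pin tool the day after seeding, either with one drug alone or with a fixed anchor-drug dose plus five library-drug doses (not always all listed) in √10 steps. After 5 days, cells were fixed and their nuclei stained in one step (final 0.05% Triton X-100, 1% formaldehyde, 1 ug/ml Hoechst), then counted on 4× images. Relative viability is the nuclei count in treated wells divided by that in vehicle wells. Values are medians of duplicate plates.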
NCI-H1650 was tested, and the relative viability was 0.196.
Work on EBC-1 yielded a relative viability of 0.482.
With NCI-H1703 the relative viability was 0.345.
NCI-H1993 was tested, and the relative viability was 1.08.
SW 1573 gave a relative viability of 0.931.
NCI-H838 was tested, and the relative viability was 0.869.
LCLC-103H gave a relative viability of 1.12.
NCI-H520 showed a relative viability of 0.752.
With NCI-H2126 the relative viability was 1.12.
In the case of EMC-BAC-2, the relative viability is reported as 1.07.
Cell Line NCI-H2085 has a relative viability of 1.11.
In the case of Calu-6, the relative viability is reported as 1.1.
In the case of HCC-366, the relative viability is reported as 1.08.
NCI-H1666 gave a relative viability of 0.97.
In the case of NCI-H596, the relative viability is reported as 1.17.
Cell Line NCI-H2087 has a relative viability of 0.738.
Cell Line IA-LM has a relative viability of 0.846.
HCC-44 gave a relative viability of 0.854.
NCI-H1299 showed a relative viability of 0.985.
With NCI-H1792 the relative viability was 0.953.
With NCI-H1563 the relative viability was 0.723.
Cell Line ABC-1 has a relative viability of 0.294.

Same assay, conditions: first compound 0.1265 µM
In the case of NCI-H727, the relative viability is reported as 1.01.
In the case of NCI-H1650, the relative viability is reported as 0.223.
Cell Line EBC-1 has a relative viability of 0.575.
Cell Line NCI-H1703 has a relative viability of 0.313.
NCI-H1993 gave a relative viability of 1.06.
In the case of SW 1573, the relative viability is reported as 1.01.
In the case of NCI-H838, the relative viability is reported as 0.739.
In the case of LCLC-103H, the relative viability is reported as 1.05.
NCI-H520 gave a relative viability of 0.561.
With NCI-H2126 the relative viability was 1.12.
Work on EMC-BAC-2 yielded a relative viability of 1.06.
NCI-H2085 gave a relative viability of 1.13.
Calu-6 was tested, and the relative viability was 0.969.
For HCC-366, the relative viability was 1.04.
With NCI-H1666 the relative viability was 0.761.
Work on NCI-H596 yielded a relative viability of 0.606.
Cell Line NCI-H2087 has a relative viability of 0.812.
With IA-LM the relative viability was 0.854.
HCC-44 gave a relative viability of 0.849.
Cell Line NCI-H1299 has a relative viability of 1.01.
For NCI-H1792, the relative viability was 0.958.
Work on NCI-H1563 yielded a relative viability of 0.925.
In the case of ABC-1, the relative viability is reported as 0.328.

Same assay, conditions: first compound 0.4 µM
In the case of NCI-H727, the relative viability is reported as 1.03.
With NCI-H1650 the relative viability was 0.188.
Work on EBC-1 yielded a relative viability of 0.588.
In the case of NCI-H1703, the relative viability is reported as 0.396.
With NCI-H1993 the relative viability was 1.05.
SW 1573 was tested, and the relative viability was 0.892.
For NCI-H838, the relative viability was 0.848.
LCLC-103H gave a relative viability of 0.96.
With NCI-H520 the relative viability was 0.615.
Work on NCI-H2126 yielded a relative viability of 1.11.
Cell Line EMC-BAC-2 has a relative viability of 1.04.
Work on NCI-H2085 yielded a relative viability of 1.06.
Calu-6 showed a relative viability of 1.04.
HCC-366 gave a relative viability of 1.03.
NCI-H1666 gave a relative viability of 0.838.
NCI-H596 showed a relative viability of 1.11.
With NCI-H2087 the relative viability was 0.759.
Work on IA-LM yielded a relative viability of 0.784.
In the case of HCC-44, the relative viability is reported as 0.827.
For NCI-H1299, the relative viability was 0.989.
NCI-H1792 showed a relative viability of 0.936.
In the case of NCI-H1563, the relative viability is reported as 0.692.
ABC-1 gave a relative viability of 0.317.

Same assay, conditions: first compound 1.265 µM
Work on NCI-H727 yielded a relative viability of 0.557.
NCI-H1650 gave a relative viability of 0.171.
Cell Line EBC-1 has a relative viability of 0.563.
NCI-H1703 gave a relative viability of 0.362.
With SW 1573 the relative viability was 0.308.
Cell Line NCI-H838 has a relative viability of 0.74.
For LCLC-103H, the relative viability was 0.736.
In the case of NCI-H520, the relative viability is reported as 0.476.
With NCI-H2126 the relative viability was 0.934.
Work on EMC-BAC-2 yielded a relative viability of 0.907.
Cell Line NCI-H2085 has a relative viability of 0.723.
Calu-6 showed a relative viability of 0.864.
Work on HCC-366 yielded a relative viability of 0.0358.
In the case of NCI-H1666, the relative viability is reported as 0.868.
Work on NCI-H596 yielded a relative viability of 0.649.
NCI-H2087 showed a relative viability of 0.375.
Work on IA-LM yielded a relative viability of 0.535.
HCC-44 was tested, and the relative viability was 0.621.
Cell Line NCI-H1299 has a relative viability of 0.887.
In the case of NCI-H1792, the relative viability is reported as 0.347.
For NCI-H1563, the relative viability was 0.742.
With ABC-1 the relative viability was 0.307.

Same assay, conditions: first compound 4 µM
Cell Line NCI-H727 has a relative viability of 0.431.
In the case of NCI-H1650, the relative viability is reported as 0.188.
EBC-1 showed a relative viability of 0.421.
In the case of NCI-H1703, the relative viability is reported as 0.262.
NCI-H1993 showed a relative viability of 1.11.
For SW 1573, the relative viability was 0.242.
For NCI-H838, the relative viability was 0.856.
Cell Line LCLC-103H has a relative viability of 1.2.
NCI-H520 was tested, and the relative viability was 0.572.
Cell Line NCI-H2126 has a relative viability of 1.12.
EMC-BAC-2 was tested, and the relative viability was 0.939.
Cell Line NCI-H2085 has a relative viability of 0.674.
For Calu-6, the relative viability was 0.672.
For HCC-366, the relative viability was 0.0541.
NCI-H1666 showed a relative viability of 0.534.
Work on NCI-H596 yielded a relative viability of 0.818.
Cell Line NCI-H2087 has a relative viability of 0.572.
Work on IA-LM yielded a relative viability of 0.324.
For HCC-44, the relative viability was 0.85.
Work on NCI-H1299 yielded a relative viability of 0.804.
NCI-H1792 showed a relative viability of 0.726.
For NCI-H1563, the relative viability was 0.648.
Work on ABC-1 yielded a relative viability of 0.278.

Each cell line was assayed with c1ccc2c(CCNc3ccc(Nc4ccncc4)cc3)c[nH]c2c1 [Serdemetan] + O=C(CCCCCCC(=O)Nc1ccccc1)NO [Vorinostat] (partner 1 µM) in the same assay as above. Settings: first compound 0.04 µM.
Summary of the method: as §1
NCI-H522 was tested, and the relative viability was 0.982.
In the case of NCI-H727, the relative viability is reported as 1.3.
In the case of NCI-H1650, the relative viability is reported as 0.406.
NCI-H1993 gave a relative viability of 0.935.
SW 1573 was tested, and the relative viability was 0.662.
NCI-H838 was tested, and the relative viability was 0.729.
For LCLC-103H, the relative viability was 0.759.
NCI-H520 gave a relative viability of 0.785.
NCI-H2126 showed a relative viability of 0.806.
For EMC-BAC-2, the relative viability was 0.463.
In the case of NCI-H2085, the relative viability is reported as 0.761.
Cell Line HCC-366 has a relative viability of 0.351.
Cell Line NCI-H1666 has a relative viability of 0.896.
Work on NCI-H596 yielded a relative viability of 0.568.
Work on LK-2 yielded a relative viability of 0.394.
For NCI-H2087, the relative viability was 0.864.
In the case of NCI-H2342, the relative viability is reported as 0.705.
